# Columns and labels:
# [1] = target: T1, human CYP11B1 (Homo sapiens, UniProt P15538); test: G-402 cellular enzyme assay, human CYP11B1 (cortisol release, HTRF); assay type: cell-based; details: G-402 cells expressing human CYP11B1; 1 μM Deoxycortisol; 16 h
# T1 construct: expressed in transfected cells
# T1 sequence (P15538 25-503): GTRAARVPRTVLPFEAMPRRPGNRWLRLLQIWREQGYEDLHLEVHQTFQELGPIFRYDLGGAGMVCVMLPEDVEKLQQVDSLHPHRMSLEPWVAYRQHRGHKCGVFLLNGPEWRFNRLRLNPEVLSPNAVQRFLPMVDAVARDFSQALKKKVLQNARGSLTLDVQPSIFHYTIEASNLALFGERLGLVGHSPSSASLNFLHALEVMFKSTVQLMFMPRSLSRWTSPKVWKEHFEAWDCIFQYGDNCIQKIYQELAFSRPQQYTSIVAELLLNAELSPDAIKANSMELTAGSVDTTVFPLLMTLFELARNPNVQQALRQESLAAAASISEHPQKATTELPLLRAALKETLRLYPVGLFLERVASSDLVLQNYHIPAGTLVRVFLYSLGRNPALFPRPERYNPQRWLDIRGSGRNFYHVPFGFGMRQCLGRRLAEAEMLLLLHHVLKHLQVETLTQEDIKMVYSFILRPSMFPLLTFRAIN
# Source text: (§1) Herein we identified the use of the G-402 cell line as a host cell to ectopically express (transiently or stably) enzymes of the CYP11 family. Specifically we developed stable G-402 cells expressing ectopically human CYP11B1, human CYP11B2, human CYP11A1, cynomolgus CYP11B1 or cynomolgus CYP11B2 enzyme activity. Importantly, the identified cell line G-402 expresses co-factors (adrenodoxin and adrenodoxin reductase) important for the activity of the CYP11 family, and no relevant enzyme activity of the CYP11 family (in comparison to H295R cells) was detected in these cells. Therefore the G-402 cell line is uniquely suited as a host cell for the ectopic expression of enzymes from the CYP11 family.
# (§2) G-402 cells can be obtained from ATCC(CRL-1440) and were originally derived from a renal leiomyoblastoma.
# (§3) The expression plasmids contains the ORF for either human/cyno CYP11B1 or CYP11B2 under the control of a suitable promoter (CMV-promoter) and a suitable resistance marker (neomycin). Using standard techniques the expression plasmid is transfected into G-402 cells and these cells are then selected for expressing the given resistance markers. Individual cell-clones are then selected and assessed for displaying the desired enzymatic activity using 11-Deoxycorticosterone (Cyp11B2) or 11-Deoxycortisol (Cyp11B1) as a substrate.
# (§4) G-402 cells expressing CYP11 constructs were established as described above and maintained in McCoy's 5a Medium Modified, ATCC Catalog No. 30-2007 containing 10% FCS and 400 μg/ml G418 (Geneticin) at 37° C. under an atmosphere of 5% CO2/95% air. Cellular enzyme assays were performed in DMEM/F12 medium containing 2.5% charcoal treated FCS and appropriate concentration of substrate (0.3-10 uM 11-Deoxycorticosterone, 11-Deoxycortisol or Corticosterone). For assaying enzymatic activity, cells were plated onto 96 well plates and incubated for 16 h. An aliquot of the supernatant is then transferred and analyzed for the concentration of the expected product (Aldosterone for CYP11B2; Cortisol for CYP11B1). The concentrations of these steroids can be determined using HTRF assays from CisBio analyzing either Aldosterone or Cortisol.
# (§5) Inhibition of the release of produced steroids can be used as a measure of the respective enzyme inhibition by test compounds added during the cellular enzyme assay. The dose dependent inhibition of enzymatic activity by a compound is calculated by means of plotting added inhibitor concentrations (x-axes) vs. measured steroid/product level (y-axes). The inhibition is then calculated by fitting the following 4-parameter sigmoidal function (Morgan-Mercer-Flodin (MMF) model) to the raw data points using the least squares method:
# (§6) [formula] wherein A is the maximum y value, B is the EC50 factor determined using XLFit, C is the minimum y value and D is the slope value.
# (§7) EC50 values for compounds claimed herein were tested with the G402-based assay system described. Cyp11B2 enzyme activity was tested in presence of 1 μM Deoxycorticosterone and variable amounts of inhibitors; Cyp11B1 enzyme activity was tested in presence of 1 μM Deoxycortisol and variable amounts of inhibitors.
# [2] = target: T2, human CYP11B2 (Homo sapiens, UniProt P19099); test: G-402 cellular enzyme assay, human CYP11B2 (aldosterone release, HTRF); assay type: cell-based; details: G-402 cells expressing human CYP11B2; 1 μM Deoxycorticosterone; 16 h
# T2 construct: expressed in transfected cells
# T2 sequence (P19099 25-503): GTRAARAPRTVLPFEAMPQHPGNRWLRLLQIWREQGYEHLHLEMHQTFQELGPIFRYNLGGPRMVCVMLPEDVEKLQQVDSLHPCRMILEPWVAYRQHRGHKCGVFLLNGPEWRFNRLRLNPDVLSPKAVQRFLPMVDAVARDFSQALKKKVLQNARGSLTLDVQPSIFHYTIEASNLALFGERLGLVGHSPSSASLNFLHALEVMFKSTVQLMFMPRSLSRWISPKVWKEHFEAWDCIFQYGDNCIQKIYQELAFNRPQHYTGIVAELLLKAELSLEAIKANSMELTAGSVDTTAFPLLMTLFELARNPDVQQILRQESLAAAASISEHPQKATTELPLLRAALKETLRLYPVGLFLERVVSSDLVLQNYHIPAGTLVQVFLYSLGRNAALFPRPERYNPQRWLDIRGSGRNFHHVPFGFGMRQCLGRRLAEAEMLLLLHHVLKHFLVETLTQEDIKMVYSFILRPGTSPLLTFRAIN
# Source text: as §1, §2, §3, §4, §5, §6, §7
EC50 [1],EC50 [2],Compound
195 nM,62.3 nM,"Cn1cncc1C(=O)c1ccc(Cl)cc1 [Example 1, (4-Chloro-phenyl)-(3-methyl-3H-imidazol-4-yl)-methanone]"
368 nM,11.6 nM,"Cn1cncc1C(=O)c1ccc(C#N)cc1 [Example 2, 4-(3-Methyl-3H-imidazole-4-carbonyl)-benzonitrile]"
167 nM,4.9 nM,"Cn1cncc1C(=O)c1ccc(Cl)c(Cl)c1 [Example 3, (3,4-Dichloro-phenyl)-(3-methyl-3H-imidazol-4-yl)-methanone]"
3500 nM,118 nM,"COc1ccc(C(=O)c2cncn2C)cc1 [Example 4, (4-Methoxy-phenyl)-(3-methyl-3H-imidazol-4-yl)-methanone]"
46.8 nM,2.6 nM,"CCn1cncc1C(=O)c1ccc(C#N)cc1 [Example 5, 4-(3-Ethyl-3H-imidazole-4-carbonyl)-benzonitrile]"
4.5 nM,0.8 nM,"CC(C)n1cncc1C(=O)c1ccc(C#N)cc1 [Example 6, 4-(3-Isopropyl-3H-imidazole-4-carbonyl)-benzonitrile]"
65.9 nM,4.4 nM,"CCn1cncc1C(=O)c1ccc(Cl)cc1 [Example 7, (4-Chloro-phenyl)-(3-ethyl-3H-imidazol-4-yl)-methanone]"
2500 nM,98.6 nM,"Cn1cncc1C(=O)c1ccc(C#N)cc1F [Example 8, 3-Fluoro-4-(3-methyl-3H-imidazole-4-carbonyl)-benzonitrile]"
187 nM,7.7 nM,"Cn1cncc1C(=O)c1ccc(Cl)c(F)c1 [Example 9, (4-Chloro-3-fluoro-phenyl)-(3-methyl-3H-imidazol-4-yl)-methanone]"
70.3 nM,10.8 nM,"CC(C)n1cncc1C(=O)c1ccc(C#N)cc1F [Example 10, 3-Fluoro-4-(3-isopropyl-3H-imidazole-4-carbonyl)-benzonitrile]"
1800 nM,216 nM,"Cn1cncc1C(=O)c1ccc(Cl)cc1Cl [Example 11, (2,4-Dichloro-phenyl)-(3-methyl-3H-imidazol-4-yl)-methanone]"
5.3 nM,1.3 nM,"CC(C)n1cncc1C(=O)c1cccc(Cl)c1 [Example 12, (3-Chloro-phenyl)-(3-isopropyl-3H-imidazol-4-yl)-methanone]"
5.6 nM,2.1 nM,"CC(C)n1cncc1C(=O)c1ccc(Cl)cc1 [Example 13, (4-Chloro-phenyl)-(3-isopropyl-3H-imidazol-4-yl)-methanone]"
1.8 nM,0.5 nM,"CC(C)n1cncc1C(=O)c1ccc(Cl)c(Cl)c1 [Example 14, (3,4-Dichloro-phenyl)-(3-isopropyl-3H-imidazol-4-yl)-methanone]"
20 nM,1.8 nM,"CCn1cncc1C(=O)c1ccc(Cl)c(Cl)c1 [Example 15, (3,4-Dichloro-phenyl)-(3-ethyl-3H-imidazol-4-yl)-methanone]"
1 nM,0.7 nM,"CCC(C)n1cncc1C(=O)c1ccc(C#N)cc1 (stereo not shown) [Example 16, 4-(3-sec-Butyl-3H-imidazole-4-carbonyl)-benzonitrile]"
3.5 nM,0.3 nM,CCC(C)n1cncc1C(=O)c1ccc(Cl)cc1 (stereo not shown) [Example 17]

EC50 [1],EC50 [2],Compound
28.7 nM,2.3 nM,"N#Cc1ccc(C(=O)c2cncn2C2CC2)cc1 [Example 18, 4-(3-Cyclopropyl-3H-imidazole-4-carbonyl)-benzonitrile]"
52.9 nM,6.1 nM,"O=C(c1ccc(Cl)cc1)c1cncn1C1CC1 [Example 19, (4-Chloro-phenyl)-(3-cyclopropyl-3H-imidazol-4-yl)-methanone]"
190 nM,23.5 nM,"N#Cc1ccc(C(=O)c2cncn2CC(F)(F)F)cc1 [Example 20, 4-[3-(2,2,2-Trifluoro-ethyl)-3H-imidazole-4-carbonyl]-benzonitrile]"
8710 nM,583 nM,"Cn1cncc1C(=O)c1cccc(C#N)c1 [Example 21, 3-(3-Methyl-3H-imidazole-4-carbonyl)-benzonitrile]"
543 nM,32.6 nM,"Cn1cncc1C(=O)c1cccc(Cl)c1 [Example 22, (3-Chloro-phenyl)-(3-methyl-3H-imidazol-4-yl)-methanone]"
151 nM,49.3 nM,"Cn1cncc1C(=O)c1ccc(F)cc1 [Example 23, (4-Fluoro-phenyl)-(3-methyl-3H-imidazol-4-yl)-methanone]"
673 nM,65.2 nM,"Cn1cncc1C(=O)c1cccc(F)c1 [Example 24, (3-Fluoro-phenyl)-(3-methyl-3H-imidazol-4-yl)-methanone]"
7880 nM,77 nM,"CN1C(=O)CCc2cc(C(=O)c3cncn3C)ccc21 [Example 25, 1-Methyl-6-(3-methyl-3H-imidazole-4-carbonyl)-3,4-dihydro-1H-quinolin-2-one]"
1120 nM,19.7 nM,"CCn1cncc1C(=O)c1ccc2c(c1)CCC(=O)N2C [Example 26, 6-(3-Ethyl-3H-imidazole-4-carbonyl)-1-methyl-3,4-dihydro-1H-quinolin-2-one]"
153 nM,6.9 nM,"CC(C)n1cncc1C(=O)c1ccc2c(c1)CCC(=O)N2C [Example 27, 6-(3-Isopropyl-3H-imidazole-4-carbonyl)-1-methyl-3,4-dihydro-1H-quinolin-2-one]"
22.7 nM,14.1 nM,"CCC(C)n1cncc1C(=O)c1cccc(Cl)c1 (stereo not shown) [Example 28, (3-sec-Butyl-3H-imidazol-4-yl)-(3-chloro-phenyl)-methanone]"
9880 nM,–,"Cn1cncc1C(=O)c1ccc(C(C)(C)C)cc1 [Example 30, (4-tert-Butyl-phenyl)-(3-methyl-3H-imidazol-4-yl)-methanone]"
–,3530 nM,"Cn1cncc1C(=O)c1ccc(S(C)(=O)=O)cc1 [Example 47, (4-Methanesulfonyl-phenyl)-(3-methyl-3H-imidazol-4-yl)-methanone]"
–,923 nM,"CC(=O)N(C)c1ccc(C(=O)c2cncn2C)cc1 [Example 55, N-Methyl-N-[4-(3-methyl-3H-imidazole-4-carbonyl)-phenyl]-acetamide]"
–,390 nM,"Cn1cncc1C(=O)c1ccc(SC(F)(F)F)cc1 [Example 73, (3-Methyl-3H-imidazol-4-yl)-(4-trifluoromethylsulfanyl-phenyl)-methanone]"
12500 nM,–,"CN(C(=O)OC(C)(C)C)c1ccc(C(=O)c2cncn2C)cc1 [Example 85, Methyl-[4-(3-methyl-3H-imidazole-4-carbonyl)-phenyl]-carbamic acid tert-butyl ester]"

# — patent US9464058B2 (Hoffmann-La Roche Inc., priority 2012, dated 2016)
